# Measured values: ChEMBL document CHEMBL1156344, “New bisdesmosidic triterpene saponins from the roots of Pulsatilla chinensis” (J Nat Prod, 2001)
# Calls of active or inactive are those of the source. No cut-off for these calls is given here.
# Test system: HL-60
# Experiment: Cytotoxicity against human HL60 cells at 10 ug/mL by MTT assay
# Type: functional, cell-based
row,SMILES,Activity
1,C=C(C)[C@@H]1CC[C@]2(C(=O)O[C@@H]3O[C@H](CO[C@@H]4O[C@H](CO)[C@@H](O[C@@H]5O[C@@H](C)[C@H](O)[C@@H](O)[C@H]5O)[C@H](O)[C@H]4O)[C@@H](O)[C@H](O)[C@H]3O)CC[C@]3(C)[C@H](CC[C@@H]4[C@@]5(C)CC[C@H](O[C@@H]6OC[C@H](O)[C@H](O)[C@H]6O)[C@@](C)(CO)[C@@H]5CC[C@]43C)[C@@H]12,inactive
2,C=C(C)[C@@H]1CC[C@]2(C(=O)O[C@@H]3O[C@H](CO[C@@H]4O[C@H](CO)[C@@H](O[C@@H]5O[C@@H](C)[C@H](O)[C@@H](O)[C@H]5O)[C@H](O)[C@H]4O)[C@@H](O)[C@H](O)[C@H]3O)CC[C@]3(C)[C@H](CC[C@@H]4[C@@]5(C)CC[C@H](O[C@@H]6OC[C@H](O)[C@H](O)[C@H]6O[C@@H]6O[C@@H](C)[C@H](O)[C@@H](O)[C@H]6O)C(C)(C)[C@@H]5CC[C@]43C)[C@@H]12,inactive
3,C=C(C)[C@@H]1CC[C@]2(C(=O)O[C@@H]3O[C@H](CO[C@@H]4O[C@H](CO)[C@@H](O[C@@H]5O[C@@H](C)[C@H](O)[C@@H](O)[C@H]5O)[C@H](O)[C@H]4O)[C@@H](O)[C@H](O)[C@H]3O)CC[C@]3(C)[C@H](CC[C@@H]4[C@@]5(C)CC[C@H](O[C@@H]6OC[C@H](O[C@@H]7O[C@H](CO)[C@@H](O[C@@H]8O[C@H](CO)[C@@H](O)[C@H](O)[C@H]8O)[C@H](O)[C@H]7O)[C@H](O)[C@H]6O[C@@H]6O[C@@H](C)[C@H](O)[C@@H](O)[C@H]6O)[C@@](C)(CO)[C@@H]5CC[C@]43C)[C@@H]12,inactive
4,C=C(C)[C@@H]1CC[C@]2(C(=O)O[C@@H]3O[C@H](CO[C@@H]4O[C@H](CO)[C@@H](O[C@@H]5O[C@@H](C)[C@H](O)[C@@H](O)[C@H]5O)[C@H](O)[C@H]4O)[C@@H](O)[C@H](O)[C@H]3O)CC[C@]3(C)[C@H](CC[C@@H]4[C@@]5(C)CC[C@H](O[C@@H]6OC[C@H](O[C@@H]7O[C@H](CO)[C@@H](O)[C@H](O)[C@H]7O)[C@H](O)[C@H]6O[C@@H]6O[C@@H](C)[C@H](O)[C@@H](O)[C@H]6O)[C@@](C)(CO)[C@@H]5CC[C@]43C)[C@@H]12,inactive
5,C[C@@H]1O[C@@H](O[C@H]2[C@H](O[C@H]3CC[C@@]4(C)[C@@H](CC[C@]5(C)[C@@H]4CC[C@@H]4[C@H]6[C@H](C(C)(C)O)CC[C@]6(C(=O)O[C@@H]6O[C@H](CO[C@@H]7O[C@H](CO)[C@@H](O[C@@H]8O[C@@H](C)[C@H](O)[C@@H](O)[C@H]8O)[C@H](O)[C@H]7O)[C@@H](O)[C@H](O)[C@H]6O)CC[C@]45C)[C@]3(C)CO)OC[C@H](O)[C@@H]2O)[C@H](O)[C@H](O)[C@H]1O,inactive
6,C=C(C)[C@@H]1CC[C@]2(C(=O)O[C@@H]3O[C@H](CO[C@@H]4O[C@H](CO)[C@@H](O[C@@H]5O[C@@H](C)[C@H](O)[C@@H](O)[C@H]5O)[C@H](O)[C@H]4O)[C@@H](O)[C@H](O)[C@H]3O)CC[C@]3(C)[C@H](CC[C@@H]4[C@@]5(C)CC[C@H](O[C@@H]6OC[C@H](O)[C@H](O)[C@H]6O[C@@H]6O[C@@H](C)[C@H](O)[C@@H](O)[C@H]6O)[C@@](C)(CO)[C@@H]5CC[C@]43C)[C@@H]12,inactive
7,C=C(C)[C@@H]1CC[C@]2(C(=O)O)CC[C@]3(C)[C@H](CC[C@@H]4[C@@]5(C)CC[C@H](O[C@@H]6OC[C@H](O)[C@H](O)[C@H]6O[C@@H]6O[C@@H](C)[C@H](O)[C@@H](O)[C@H]6O)[C@@](C)(CO)[C@@H]5CC[C@]43C)[C@@H]12,inactive
